In publication PMC8268376, “Effects of Venlafaxine, Risperidone and Febuxostat on Cuprizone-Induced Demyelination, Behavioral Deficits and Oxidative Stress” (International Journal of Molecular Sciences, 2021):

Biological target: TRPA1 (hTRPA1, transient receptor potential ankyrin 1) (Homo sapiens, UniProt O75762)
Experiment: Calcium […] fluorescence assay in hTRPA1-transfected vs untransfected HEK293T cells; agonist response blocked by A-967079; significant at […] and above
Format: cell-based

Sequence of TRPA1 (hTRPA1, transient receptor potential ankyrin 1) (O75762 whole entry): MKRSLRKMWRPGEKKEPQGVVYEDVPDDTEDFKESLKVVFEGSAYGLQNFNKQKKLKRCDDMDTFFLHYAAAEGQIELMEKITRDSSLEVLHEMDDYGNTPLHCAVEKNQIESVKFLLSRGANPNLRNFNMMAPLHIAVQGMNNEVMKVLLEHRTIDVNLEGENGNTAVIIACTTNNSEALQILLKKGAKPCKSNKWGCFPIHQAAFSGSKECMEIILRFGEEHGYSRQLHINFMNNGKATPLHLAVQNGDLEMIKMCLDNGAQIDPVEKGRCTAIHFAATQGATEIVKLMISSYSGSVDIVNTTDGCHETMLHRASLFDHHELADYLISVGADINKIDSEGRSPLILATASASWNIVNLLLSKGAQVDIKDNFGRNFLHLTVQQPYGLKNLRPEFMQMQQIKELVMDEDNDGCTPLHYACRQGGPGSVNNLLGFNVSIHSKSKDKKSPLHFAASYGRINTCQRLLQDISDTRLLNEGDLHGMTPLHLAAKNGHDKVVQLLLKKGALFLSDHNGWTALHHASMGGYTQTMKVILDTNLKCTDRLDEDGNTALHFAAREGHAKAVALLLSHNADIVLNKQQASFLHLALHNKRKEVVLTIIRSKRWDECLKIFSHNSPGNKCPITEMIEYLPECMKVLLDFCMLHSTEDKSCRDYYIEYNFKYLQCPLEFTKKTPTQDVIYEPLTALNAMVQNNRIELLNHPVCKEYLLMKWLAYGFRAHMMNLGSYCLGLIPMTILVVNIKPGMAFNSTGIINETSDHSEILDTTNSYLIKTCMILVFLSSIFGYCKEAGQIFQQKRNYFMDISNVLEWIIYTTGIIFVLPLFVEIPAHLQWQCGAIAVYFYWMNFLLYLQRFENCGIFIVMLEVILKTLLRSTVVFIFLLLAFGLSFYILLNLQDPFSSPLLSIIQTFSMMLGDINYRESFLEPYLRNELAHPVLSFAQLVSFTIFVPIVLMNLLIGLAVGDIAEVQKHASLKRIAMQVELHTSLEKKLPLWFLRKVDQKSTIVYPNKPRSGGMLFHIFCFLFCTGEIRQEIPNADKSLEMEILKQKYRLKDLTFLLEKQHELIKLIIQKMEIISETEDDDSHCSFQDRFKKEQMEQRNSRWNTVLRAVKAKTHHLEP

## Cc1nc(-c2ccc(OCC(C)C)c(C#N)c2)sc1C(=O)O [febuxostat]
  lowest concentration giving significant TRPA1 calcium response: ~ 126 µM
